≈ marks a conversion by molar mass, not a printed value. Calls of active or inactive are those of the source. The rule behind the calls is not given here.
Assays:
[1] = AUC (0 to t) in Sprague-Dawley rat at 3 mg/kg, iv measured upto 24 hrs by UPLC/MS/MS analysis; type: ADME, organism-based; parameters: time < 24 hrs, dose 3 mg/kg, route iv; details: in vivo
[2] = system: ECa-109 cell line; assay: Reversal of VCR -resistance in human Eca-109 cells assessed as cell viability at 1 uM incubated for 48 hrs by CCK-8 method (reference value: 6830.0+/-537.0 nM); type: functional, cell-based; details: ECa-109, 48 h
[3] = AUMC (0 to infinity) in Sprague-Dawley rat at 30 mg/kg, po measured upto 24 hrs by UPLC/MS/MS analysis; type: ADME, organism-based; details: in vivo
[4] = AUC (0 to t) in Sprague-Dawley rat at 30 mg/kg, po measured upto 24 hrs by UPLC/MS/MS analysis; type: ADME, organism-based; parameters: time < 24 hrs, dose 30 mg/kg, route po; details: in vivo
[5] = Cytotoxicity against HEK293T cells incubated for 48 hrs by CCK-8 method; type: toxicity, cell-based, HEK-293T; details: human
[6] = system: ECa-109 cell line; assay: Induction of apoptosis in vincristine resistant human Eca-109 cells assessed as viable cells at 2.5 uM incubated for 24 hrs in presence of vincristine by AnnexinV-FITC/PI staining based flow cytometric analysis (reference value: 89.2%); type: functional; details: read-out: Activity
[7] = system: ECa-109 cell line; assay: Induction of apoptosis in vincristine resistant human Eca-109 cells assessed as early apoptotic cells at 2.5 uM incubated for 24 hrs by AnnexinV-FITC/PI staining based flow cytometric analysis (reference value: 2.30%); type: functional
[8] = system: ECa-109 cell line; assay: Induction of apoptosis in vincristine resistant human Eca-109 cells assessed as late apoptotic cells at 2.5 uM incubated for 24 hrs by AnnexinV-FITC/PI staining based flow cytometric analysis (reference value: 7.19%); type: functional
[9] = system: ECa-109 cell line; assay: Synergistic antitumor activity against in vincristine resistant p-gp overexpressing human Eca-109 cells xenografted in nude mouse assessed as increase in apoptosis at 30 mg/kg, IG administered every two days for 21 days in presence of vincristine by TUNEL analysis; type: functional, organism-based; details: time 21.0 day
[10] = Apparent oral clearance in Sprague-Dawley rat at 3 mg/kg, iv measured upto 24 hrs by UPLC/MS/MS analysis; type: ADME, organism-based; details: in vivo
[11] = biological target: T1, ATP-dependent translocase ABCB1 (Homo sapiens, UniProt P08183); assay: Inhibition of P-gp efflux in vincristine resistant human Eca-109 cells assessed as increase in rhodamine 123 fluorescence intensity incubated for 3 hrs; type: cell-based; details: eca-109, 3 h, dose 0-45 µM
T1 sequence (P08183 whole entry): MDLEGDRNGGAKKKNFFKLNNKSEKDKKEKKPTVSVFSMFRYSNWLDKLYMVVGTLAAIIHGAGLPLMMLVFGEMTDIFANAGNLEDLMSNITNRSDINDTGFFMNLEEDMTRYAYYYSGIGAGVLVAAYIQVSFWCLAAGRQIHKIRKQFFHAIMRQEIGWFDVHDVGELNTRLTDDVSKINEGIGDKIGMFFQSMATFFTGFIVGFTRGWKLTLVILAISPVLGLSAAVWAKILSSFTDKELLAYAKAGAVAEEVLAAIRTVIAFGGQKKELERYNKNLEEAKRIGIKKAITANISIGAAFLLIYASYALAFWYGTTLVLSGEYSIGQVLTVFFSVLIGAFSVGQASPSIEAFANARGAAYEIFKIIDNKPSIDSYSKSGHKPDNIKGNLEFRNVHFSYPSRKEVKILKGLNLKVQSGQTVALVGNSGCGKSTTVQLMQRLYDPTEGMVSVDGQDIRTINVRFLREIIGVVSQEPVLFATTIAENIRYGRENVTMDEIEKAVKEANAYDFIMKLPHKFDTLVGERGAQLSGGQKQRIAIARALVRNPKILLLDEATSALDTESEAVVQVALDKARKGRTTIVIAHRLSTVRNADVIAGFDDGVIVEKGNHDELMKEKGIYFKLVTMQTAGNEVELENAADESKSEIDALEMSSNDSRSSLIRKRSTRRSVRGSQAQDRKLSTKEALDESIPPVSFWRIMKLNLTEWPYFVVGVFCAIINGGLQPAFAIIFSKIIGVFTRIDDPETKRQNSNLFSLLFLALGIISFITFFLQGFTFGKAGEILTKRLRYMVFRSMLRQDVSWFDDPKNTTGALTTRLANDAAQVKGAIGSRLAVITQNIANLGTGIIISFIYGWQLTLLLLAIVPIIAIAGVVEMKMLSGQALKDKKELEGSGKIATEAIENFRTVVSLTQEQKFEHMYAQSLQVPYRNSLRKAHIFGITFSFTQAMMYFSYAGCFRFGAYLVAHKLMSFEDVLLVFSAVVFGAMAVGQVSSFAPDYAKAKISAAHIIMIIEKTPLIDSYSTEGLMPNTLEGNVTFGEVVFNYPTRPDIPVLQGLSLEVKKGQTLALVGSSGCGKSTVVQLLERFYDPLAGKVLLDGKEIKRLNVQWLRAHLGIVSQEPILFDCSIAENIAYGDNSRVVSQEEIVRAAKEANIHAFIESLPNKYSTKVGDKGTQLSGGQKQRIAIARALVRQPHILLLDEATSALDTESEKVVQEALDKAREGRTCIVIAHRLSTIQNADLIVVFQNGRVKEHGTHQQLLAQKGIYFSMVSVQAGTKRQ

[12] = system: ECa-109 cell line; assay: Induction of apoptosis in vincristine resistant human Eca-109 cells assessed as necrotic cells at 5 uM incubated for 24 hrs by AnnexinV-FITC/PI staining based flow cytometric analysis (reference value: 0.25%); type: functional
[13] = Apparent volume of distribution during terminal phase in Sprague-Dawley rat at 3 mg/kg, iv measured upto 24 hrs by UPLC/MS/MS analysis; type: ADME, organism-based; details: in vivo
[14] = Half life in Sprague-Dawley rat at 3 mg/kg, iv measured upto 24 hrs by UPLC/MS/MS analysis; type: ADME, organism-based; details: in vivo
[15] = biological target: T1, ATP-dependent translocase ABCB1; assay: Inhibition of P-gp efflux in vincristine resistant human Eca-109 cells assessed as effect on accumulation of calcein-AM; type: cell-based
[16] = system: ECa-109 cell line; assay: Reversal of vincristine-resistance in human Eca-109 cells assessed as fold reversal by measuring cell viability incubated for 48 hrs by CCK-8 method relative to vincristine alone; type: functional
[17] = Tmax in Sprague-Dawley rat at 30 mg/kg, po measured upto 24 hrs by UPLC/MS/MS analysis; type: ADME, organism-based; details: in vivo
[18] = system: ECa-109 cell line; assay: Induction of apoptosis in vincristine resistant human Eca-109 cells assessed as necrotic cells at 1 uM incubated for 24 hrs in presence of vincristine by AnnexinV-FITC/PI staining based flow cytometric analysis (reference value: 0.35%); type: functional
[19] = biological target: T1, ATP-dependent translocase ABCB1; assay: Inhibition of P-gp efflux in vincristine resistant human Eca-109 cells assessed as effect on accumulation of rhodamine123; type: cell-based
[20] = system: ECa-109 cell line; assay: Induction of apoptosis in vincristine resistant human Eca-109 cells assessed as viable cells at 1 uM incubated for 24 hrs by AnnexinV-FITC/PI staining based flow cytometric analysis (reference value: 90.3%); type: functional; details: read-out: Activity
[21] = system: ECa-109 cell line; assay: Cytotoxicity against human Eca-109 cells incubated for 48 hrs by CCK-8 method; type: functional, cell-based; details: ECa-109, 48 h
[22] = Terminal elimination half life in Sprague-Dawley rat at 30 mg/kg, po measured upto 24 hrs by UPLC/MS/MS analysis; type: ADME, organism-based; details: in vivo, read-out: LambdaZ (converted)
[23] = Half life in Sprague-Dawley rat at 30 mg/kg, po measured upto 24 hrs by UPLC/MS/MS analysis; type: ADME, organism-based; details: in vivo
[24] = biological target: T1, ATP-dependent translocase ABCB1; assay: Inhibition of P-gp efflux in vincristine resistant human Eca-109 cells assessed as increase in rhodamine 123 accumulation incubated for 3 hrs by DAPI staining based laser-scanning confocal microscopy analysis; type: cell-based; details: eca-109, 3 h, at 1 to 5 µM, dose 1-5 µM
[25] = system: ECa-109 cell line; assay: Induction of apoptosis in vincristine resistant human Eca-109 cells assessed as necrotic cells at 1 uM incubated for 24 hrs by AnnexinV-FITC/PI staining based flow cytometric analysis (reference value: 0.25%); type: functional
[26] = system: ECa-109 cell line; assay: Induction of apoptosis in vincristine resistant human Eca-109 cells assessed as late apoptotic cells at 5 uM incubated for 24 hrs in presence of vincristine by AnnexinV-FITC/PI staining based flow cytometric analysis (reference value: 6.01%); type: functional
[27] = Solubility of the compound in water at 25 degree C by shake flask method based UV-spectrophotometric method; type: physicochemical
[28] = system: ECa-109 cell line; assay: Induction of apoptosis in vincristine resistant human Eca-109 cells assessed as necrotic cells at 2.5 uM incubated for 24 hrs by AnnexinV-FITC/PI staining based flow cytometric analysis (reference value: 0.25%); type: functional
[29] = Terminal elimination half life in Sprague-Dawley rat at 3 mg/kg, iv measured upto 24 hrs by UPLC/MS/MS analysis; type: ADME, organism-based; details: in vivo, read-out: LambdaZ (converted)
[30] = biological target: T1, ATP-dependent translocase ABCB1; assay: Inhibition of P-gp efflux in vincristine resistant human Eca-109 cells assessed as increase in intracellular accumulation of rhodamine123 at 1 to 5 uM incubated for 1 hr by flow cytometry analysis; type: cell-based; details: eca-109, 1 h, dose 1-5 µM
[31] = system: ECa-109 cell line; assay: Synergistic antitumor activity against in vincristine resistant p-gp overexpressing human Eca-109 cells xenografted in nude mouse assessed as increase in nuclear pyknosis at 30 mg/kg, IG administered every two days for 21 days in presence of vincristine by TUNEL analysis; type: functional, organism-based; details: time 21.0 day
[32] = system: ECa-109 cell line; assay: Induction of apoptosis in vincristine resistant human Eca-109 cells assessed as late apoptotic cells at 1 uM incubated for 24 hrs in presence of vincristine by AnnexinV-FITC/PI staining based flow cytometric analysis (reference value: 6.01%); type: functional
[33] = Cytotoxicity against human LX2 cells incubated for 48 hrs by CCK-8 method; type: toxicity, cell-based, LX-2
[34] = MRT (0 to infinity) in Sprague-Dawley rat at 30 mg/kg, po measured upto 24 hrs by UPLC/MS/MS analysis; type: ADME, organism-based; details: in vivo
[35] = system: ECa-109 cell line; assay: Induction of apoptosis in vincristine resistant human Eca-109 cells assessed as viable cells at 2.5 uM incubated for 24 hrs by AnnexinV-FITC/PI staining based flow cytometric analysis (reference value: 90.3%); type: functional; details: read-out: Activity

## COc1cc2c(cc1OC)C(Cc1ccc(OC)c(OCc3ccccc3)c1)N(C)CC2 (stereo not given)
[1]
  AUC(0-t) at 24 h: 2690 ng·h/mL
[2]
  IC50: 1.87 µM
[3]
  AUMC: 131110.55 ng/mL.hr^2
[4]
  AUC(0-t) at 24 h: 2670 ng·h/mL
[5]
  IC50 at 48 h: > 50 µM
[6]
  viability at 2.5 µM: 70.5%
[7]
  Activity: 2.26%
[8]
  Activity: 5.69%
[9]
  Activity: Active
[10]
  CL/F: 18.3 mL/min/kg
[11]
  inhibition (INH): Dose-Dependent Effect
[12]
  Activity: 0.14%
[13]
  Vz/F: 12.84 L/kg
[14]
  half-life: 8.43 h
[15]
  inhibition (INH): Active
[16]
  fold change (FC): 690.6
[17]
  Tmax: 0.38 h
[18]
  Activity: 0.37%
[19]
  inhibition (INH): Active
[20]
  viability at 1 µM: 91.6%
[21]
  IC50: > 100 µM
[22]
  k el at 24 h: 3.33e-05 s⁻¹
[23]
  half-life: 7.37 h
[24]
  inhibition (INH): Dose-Dependent Effect
[25]
  Activity: 0.15%
[26]
  Activity: 9.81%
[27]
  solubility thermodynamic: 68 µg/mL (≈ 157 µM)
[28]
  Activity: 0.11%
[29]
  k el at 24 h: 4.17e-05 s⁻¹
[30]
  inhibition (INH): Active
[31]
  Activity: Active
[32]
  Activity: 8.64%
[33]
  IC50 at 48 h: > 50 µM
[34]
  MRT inf: 4.89 h
[35]
  viability at 2.5 µM: 91.9%
